Experimental data: paper PMC10849753, “Antiproliferative activity of platinum(II) and copper(II) complexes containing novel biquinoxaline ligands” (Metallomics: Integrated Biometal Science, 2024)

Columns and labels:
PC3 cells = assay: MTT cell viability assay; type: cell-based, human
Description: (§1) Cell culture growth conditions: Selected cancer cell lines from different origins, including human glioblastoma A172 (CRL-1620), LN229 (CRL-2611), U87 (HTB-14) cell lines, human cervix HeLa (ATCC, CCL-2), human breast MDA -231 (HTB-26), human prostate PC-3 (ATCC, CRL-1435), human lung A-549 (CCL-185), and non-cancer Chinese hamster ovary CHOK1 cell line (CCL61) (which was used as control) were purchased from American Type Culture Collection (ATCC, USA). These cultures were grown in Dulbecco's modified Eagle's medium-F12 (DMEM/F12, #D0547, Sigma-Aldrich) supplemented with 5% fetal bovine serum (#10500, Gibco) and 1% antibiotic-antimycotic (#15240, Gibco), and incubated at 37°C and 5% CO2. They were harvested and used for the following assays after reaching 70–80% confluency.
(§2) The used cell lines (A172, LN229, U87, HeLa, MDA-231, PC-3, A549, and CHO-K1) were harvested and seeded (6 × 10^3 cells/well) into the 96-well plates and incubated at 37°C and 5% CO2 for 24 h. After that, the synthesized Cu(II) and Pt(II) complexes, at a concentration range of 6.25 to 100 μM in DMEM-F12, were added to the cell monolayers and incubated at 37°C and 5% CO2 for 24, 48, and 72 h. The dose–response relationships of the synthesized complexes were determined by using an MTT colorimetric agent (3-[4,5-dimethylthiazol-2-yl]-2,5-diphenyltetrazolium bromide, #M5655, Sigma-Aldrich), which is reduced by the mitochondrial enzymes of the metabolically active live cells and converted into a purple formazan product. The MTT stock solution was later dissolved in a phosphate buffer solution (PBS, 5 mg/ml, w/v) and, then, 5 μg/ml of MTT in DMEM was added into each well and incubated at 37°C and 5% CO2 for 4 h. DMSO (#D 8418, Sigma-Aldrich), as a dissolving solution for formazan crystals, was added into each well and placed in a shaker for 2 h. The absorbance at a test wavelength of 570 nm and a reference wavelength of 630 nm was measured on a microplate reader.

HeLa cells [1] = assay: MTT cell viability assay; type: cell-based, human
Description: as §1, §2

U87 cells = assay: MTT cell viability assay; type: cell-based, human
Description: as §1, §2

MDA231 cells = assay: MTT cell viability assay; type: cell-based, human
Description: as §1, §2

A549 cells = assay: MTT cell viability assay; type: cell-based, human
Description: as §1, §2

A172 cells = assay: MTT cell viability assay; type: cell-based, human
Description: as §1, §2

LN229 cells = assay: MTT cell viability assay; type: cell-based, human
Description: as §1, §2

[2] = target: T1, human serum albumin (HSA) (Homo sapiens, UniProt P02768); assay: HSA fluorescence quenching titration; type: binding; design: unit not given here; details: 1 μM HSA, 0-50 μM complexes
Description: Tests involving fluorescence titration were conducted by maintaining the concentration of 1 μM HSA and changing the concentrations of the complexes between 0 and 50 μM in 5 mM Tris HCl buffer. The fluorescence spectral measurements were made at […] to 500 nm after exciting the solution at 280 nm.

EtBr-bound CT-DNA = assay: Fluorescence quenching of EtBr-pretreated CT-DNA (Stern–Volmer); type: binding, calf; design: unit not given here; details: 0 to 160 μM compounds
Description: In order to obtain the linear Stern–Volmer quenching constant (Ksv), a Thermo-Scientific Lumina Fluorescence Spectrometer was used to conduct the flourometric measurements of 10 μM ethidium bromide (EtBr)-pretreated CT-DNA solutions in the presence of 0 to 160 μM compounds.[31],[36] The excitation wavelength was adjusted at 478 nm, and emissions ware observed at about 610 nm.

[3] = target: T1, human serum albumin (HSA); assay: UV titration with HSA; details: binding to HSA, 310-340 K
Description: The change in the electronic absorption spectrum of the complexes in the presence and the absence of CT-DNA was followed using an HP Agilent8453 Spectrophotometer. During the measurements, the concentration of the compounds was kept constant [Cu(tpbq)Cl2 = 3.0 × 10^−3 M; Cu(ttbq)Cl2 = 0.50 × 10^−3 M; Pt(tpbq)Cl2 = 3.0 × 10^−3 M; Pt(ttbq)Cl2 = 3.0 × 10^−3 M)], while the CT-DNA concentration was changed depending on the R (R=[DNA]/[complex]) value of 0 to 10. […] The optimal incubation time was determined as 30 min for Cu(ttbq)Cl2, 60 min for Pt(tpbq)Cl2, and 45 min for Cu(tpbq)Cl2 and Pt(ttbq)Cl2 at 37°C spectroscopically. […] The optimal incubation time for HSA binding titrations was determined as 30 min for Cu(ttbq)Cl2 and Pt(ttbq)Cl2, and 60 min for Cu(tpbq) Cl2 and Pt(tpbq)Cl2 spectroscopically.[37]

HeLa cells [4] = assay: In vitro scratch wound healing (cell migration); type: cell-based, human; details: 6.25 and 12.5 μM, 24, 48, and 72 h
Description: In vitro scratch wound healing experiments were carried out with HeLa cell lines (3 × 10^4 cells/insert), which were seeded into 6-well plates. When they reached 80–90% confluence, scratches were created using AutoScratch (BioTek) in a straight line. The same Cu(II) or Pt(II) complex concentrations (6.25 or 12.5 μM) were used and incubated in the presence of 5% CO2 at 37°C in a humidified incubator for 24, 48, and 72 h. Images were obtained at the beginning of the exposure (time 0), and repeated at the end of 24, 48, and 72 h incubation periods.

T1 sequence (P02768 25-609): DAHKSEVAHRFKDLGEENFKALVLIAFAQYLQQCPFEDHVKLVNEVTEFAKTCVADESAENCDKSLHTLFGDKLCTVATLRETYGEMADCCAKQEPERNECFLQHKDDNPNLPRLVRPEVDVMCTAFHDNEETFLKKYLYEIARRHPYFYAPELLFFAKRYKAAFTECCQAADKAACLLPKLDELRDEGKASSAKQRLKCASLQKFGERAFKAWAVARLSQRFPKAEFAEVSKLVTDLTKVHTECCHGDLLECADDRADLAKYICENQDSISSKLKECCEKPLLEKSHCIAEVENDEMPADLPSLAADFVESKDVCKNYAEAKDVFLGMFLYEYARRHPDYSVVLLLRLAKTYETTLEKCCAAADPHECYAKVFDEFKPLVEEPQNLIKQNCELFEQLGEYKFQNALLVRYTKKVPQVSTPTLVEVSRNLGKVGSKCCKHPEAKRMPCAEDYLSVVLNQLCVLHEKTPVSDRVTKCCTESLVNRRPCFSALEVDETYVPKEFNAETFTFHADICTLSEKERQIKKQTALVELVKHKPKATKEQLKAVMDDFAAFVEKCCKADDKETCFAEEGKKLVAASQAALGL

SMILES | IC50 (PC3 cells; PC3, 24 h exposure) | IC50 (PC3 cells; PC3, 48 h exposure) | IC50 (PC3 cells; PC3, 72 h exposure) | IC50 (HeLa cells [1]; 24 h exposure) | IC50 (HeLa cells [1]; 48 h exposure) | IC50 (HeLa cells [1]; 72 h exposure) | IC50 (U87 cells; U87, 24 h exposure) | IC50 (U87 cells; U87, 48 h exposure) | IC50 (MDA231 cells; MDA231, 24 h exposure) | IC50 (MDA231 cells; MDA231, 48 h exposure) | IC50 (MDA231 cells; MDA231, 72 h exposure) | IC50 (A549 cells; A549, 24 h exposure) | IC50 (A549 cells; A549, 48 h exposure) | IC50 (A549 cells; A549, 72 h exposure) | IC50 (A172 cells; A172, 24 h exposure) | IC50 (A172 cells; A172, 48 h exposure) | IC50 (A172 cells; A172, 72 h exposure) | IC50 (LN229 cells; LN229, 24 h exposure) | IC50 (LN229 cells; LN229, 48 h exposure) | IC50 (LN229 cells; LN229, 72 h exposure) | also measured
[Cl][Cu][Cl].c1ccc(-c2nc3ccc(-c4ccc5nc(-c6ccccn6)c(-c6ccccn6)nc5c4)cc3nc2-c2ccccn2)nc1 [Cu(tpbq)Cl2] | > 100 µM | > 100 µM | > 100 µM | > 100 µM | > 100 µM | > 100 µM | 79.5 ± 26.4 µM | 5.49 ± 0.01 µM | 72.1 ± 26 µM | > 100 µM | > 100 µM | > 100 µM | > 100 µM | > 100 µM | > 100 µM | > 100 µM | 92 ± 7.46 µM | > 100 µM | > 100 µM | > 100 µM | IC50 (U87 cells; U87, 72 h exposure): 13.5 ± 6.06 µM; KSV (Stern–Volmer quenching constant) [2]: 0.0059; KSV (Stern–Volmer quenching constant) (EtBr-bound CT-DNA): 0.0105; ΔG^o (standard Gibbs free energy change) [3]: -19800 J; ΔH^o (standard enthalpy change) [3]: 120800 J; ΔS^o (standard entropy change) [3]: 458.15 J/K
[Cl][Cu][Cl].c1csc(-c2nc3ccc(-c4ccc5nc(-c6cccs6)c(-c6cccs6)nc5c4)cc3nc2-c2cccs2)c1 [Cu(ttbq)Cl2] | 65.8 ± 5.35 µM | 75.5 ± 3.16 µM | 62.3 ± 4.02 µM | 67.5 ± 2.78 µM | 74.22 ± 0.45 µM | 65 ± 2.75 µM | 31.2 ± 0.43 µM | 2.95 ± 0.97 µM | 20.6 ± 2.39 µM | 32.1 ± 1.05 µM | 41 ± 0.6 µM | 73.5 ± 1.35 µM | 70.7 ± 4.09 µM | 66.9 ± 8.7 µM | 69.44 ± 0.19 µM | 63.9 ± 3.56 µM | 57.4 ± 13.7 µM | 42 ± 14 µM | 36 ± 6.38 µM | 54 ± 3.1 µM | IC50 (U87 cells; U87, 72 h exposure): 5.75 ± 0.03 µM; KSV (Stern–Volmer quenching constant) [2]: 0.0720; KSV (Stern–Volmer quenching constant) (EtBr-bound CT-DNA): 0.0137; migration of HeLa cells toward the scratch zone (HeLa cells [4]): declined; ΔG^o (standard Gibbs free energy change) [3]: -27900 J; ΔH^o (standard enthalpy change) [3]: 53100 J; ΔS^o (standard entropy change) [3]: 258.51 J/K
[Cl][Pt][Cl].c1ccc(-c2nc3ccc(-c4ccc5nc(-c6ccccn6)c(-c6ccccn6)nc5c4)cc3nc2-c2ccccn2)nc1 [Pt(tpbq)Cl2] | > 100 µM | > 100 µM | > 100 µM | > 100 µM | 58 ± 26.9 µM | 42.9 ± 1.69 µM | 58.4 ± 11.8 µM | 34.7 ± 2.16 µM | 94.8 ± 2.57 µM | > 100 µM | 99.4 ± 5.71 µM | > 100 µM | 58.4 ± 5.35 µM | 40.3 ± 3.42 µM | 94.3 ± 12.3 µM | 39.4 ± 15.8 µM | 73.67 ± 0.28 µM | > 100 µM | 91.9 ± 49 µM | 83.9 ± 3.16 µM | KSV (Stern–Volmer quenching constant) [2]: 0.0261; KSV (Stern–Volmer quenching constant) (EtBr-bound CT-DNA): 0.0082; migration of HeLa cells toward the scratch zone (HeLa cells [4]): declined; ΔG^o (standard Gibbs free energy change) [3]: -31400 J; ΔH^o (standard enthalpy change) [3]: 22900 J; ΔS^o (standard entropy change) [3]: 174.97 J/K
[Cl][Pt][Cl].c1csc(-c2nc3ccc(-c4ccc5nc(-c6cccs6)c(-c6cccs6)nc5c4)cc3nc2-c2cccs2)c1 [Pt(ttbq)Cl2] | > 100 µM | > 100 µM | > 100 µM | 88.9 ± 8.31 µM | 79.7 ± 24.2 µM | > 100 µM | > 100 µM | 9.24 ± 4.16 µM | 85 ± 10.8 µM | > 100 µM | > 100 µM | 95 ± 2.93 µM | > 100 µM | > 100 µM | 93.5 ± 18.4 µM | 65.5 ± 17.7 µM | 49.5 ± 5.73 µM | 67.9 ± 16.3 µM | 44.8 ± 11.6 µM | 38.8 ± 1.46 µM | IC50 (U87 cells; U87, 72 h exposure): 5.95 ± 1.68 µM; KSV (Stern–Volmer quenching constant) [2]: 0.0589; KSV (Stern–Volmer quenching constant) (EtBr-bound CT-DNA): 0.0143; migration of HeLa cells toward the scratch zone (HeLa cells [4]): declined; ΔG^o (standard Gibbs free energy change) [3]: -28600 J; ΔH^o (standard enthalpy change) [3]: 33200 J; ΔS^o (standard entropy change) [3]: 198.00 J/K
